Experimental data: patent US8629132B2, “Kinase inhibitors” (Genosco, priority 2009, dated 2014)

Target: T1, ZAP70 (Homo sapiens, UniProt P43403)
T1 construct: Purified full-length human SYK, ZAP70, PIM1, PYK2; purchased Carna Biosciences
T1 sequence (P43403 1-619): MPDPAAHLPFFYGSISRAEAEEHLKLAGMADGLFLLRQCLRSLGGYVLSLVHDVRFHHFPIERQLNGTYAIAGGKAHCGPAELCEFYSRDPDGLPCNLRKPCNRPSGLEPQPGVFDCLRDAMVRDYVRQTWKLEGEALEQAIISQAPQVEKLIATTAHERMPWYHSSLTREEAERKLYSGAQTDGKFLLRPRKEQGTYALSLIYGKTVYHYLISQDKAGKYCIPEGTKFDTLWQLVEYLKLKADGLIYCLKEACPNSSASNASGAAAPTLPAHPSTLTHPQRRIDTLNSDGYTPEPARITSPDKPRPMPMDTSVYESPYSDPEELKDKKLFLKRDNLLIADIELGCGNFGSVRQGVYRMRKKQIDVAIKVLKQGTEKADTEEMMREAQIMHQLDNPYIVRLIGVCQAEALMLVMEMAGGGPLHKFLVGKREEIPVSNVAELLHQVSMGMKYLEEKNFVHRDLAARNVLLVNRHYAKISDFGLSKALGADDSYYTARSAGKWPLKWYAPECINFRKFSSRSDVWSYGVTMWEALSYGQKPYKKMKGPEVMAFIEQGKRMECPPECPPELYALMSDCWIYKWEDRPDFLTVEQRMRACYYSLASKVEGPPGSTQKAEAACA
Experiment: Kinase inhibition assay: ZAP70
Assay type: biochemical
Settings: at 1 μM concentration
Method: Compounds of the present invention were tested for their capacity to inhibit a kinase panel which includes, but are not limited to, spleen tyrosine kinase (SYK), zeta-chain-associated protein kinase 70 (ZAP70), PTK2B protein tyrosine kinase 2 (PYK2), focal adhesion kinase (FAK), provirus integration of maloney kinase 1 (PIM1), rearranged during transfection kinase (RET), Fms-like tyrosine kinase 3 (FLT3), Janus kinase 2 (JAK2), and leucine-rich repeat kinase 2 (LRRK2).
Inhibition of SYK, ZAP70, PYK2, FAK, PIM1, RET, FLT3, JAK2 and LRRK2 Kinase Activity
Compounds of the invention were initially diluted to 10 mM in 100% DMSO (CALBIOCHEM™) for storage and made into kinase buffer solution to create a compound concentration ranging from 1 uM and 10 uM. Serial dilutions of compounds of the invention were dispensed into a 96-well plate (GREINER BIOSCIENCES™) at 6 μL each. Purified full-length human SYK, ZAP70, PIM1, PYK2 and truncated human FAK, RET, FLT3, JAK2, and LRRK2 (CARNA BIOSCIENCES™) were diluted in kinase buffer and added to the compound solutions and pre-incubated for 30 minutes at room temperature (1 hour for PYK2). […] The reaction mixture was incubated for 1 hour (2 hours for PYK2). Following the incubation, the stop solution made with EDTA, water, and Lance detection buffer ([…]™) was added (12μL each) to stop phosphorylation. […] The IC50 value of test compound was calculated at Gradpad Prism 5 unless specified otherwise.

COc1cc(Nc2ncc(C)c(-n3cc(C)c(CO)c3)n2)cc(OC)c1OC [Compound 21, (4-methyl-1-(5-methyl-2-(3,4,5-trimethoxyphenylamino)pyrimidin-4-yl)-1H-pyrrol-3-yl)methanol]
inhibition at 1 µM: 54.6%
